# Patent publication US20260124226A1 (priority 2023, published 2026)
# Like-named read-outs stand apart in the source and are kept apart here.
# Tests used:
# [1] = tested on: Junin virus; test: microbe, parasite or virus in culture; type: cell-based; conditions: for EC50: Junin virus strain Candid #1, Vero cells
# [2] = tested on: A549; test: EIDD-2749 cytotoxicity; type: cell-based; conditions: A549 cells
# [3] = tested on: Vero 76 cells; conditions: African green monkey
# [4] = Mouse PK (plasma, IP and oral); conditions: female, ICR (CD-1)
# [5] = tested on: Flu B; test: microbe, parasite or virus in culture; type: cell-based, influenza B virus; conditions: Influenza B virus, MDCK
# [6] = female, ICR (CD-1), mouse, in vivo
# [7] = tested on: IEC-6; test: EIDD-2749 cytotoxicity; type: cell-based; conditions: IEC-6 cells
# [8] = tested on: Vero; test: EIDD-2749 cytotoxicity; type: cell-based, African green monkey; conditions: Vero cells
# [9] = tested on: La Crosse virus; test: microbe, parasite or virus in culture; type: cell-based
# [10] = tested on: Lymphocytic choriomeningitis virus; test: microbe, parasite or virus in culture; type: cell-based; conditions: Mammarenavirus choriomeningitidis, Vero
# [11] = tested on: Human Norovirus; test: microbe, parasite or virus in culture; type: cell-based; conditions: HG23
# [12] = tested on: RD cells; conditions: human
compound,measurement,setting,value
"O=c1ccn([C@@H]2O[C@](F)(CO)[C@@H](O)[C@H]2O)c(=O)[nH]1 [EIDD-2749, 4′-fluorouridine]",EC50,[1],1.29 µM
same,EC90,"[1]; Mammarenavirus juninense, Vero",0.38 µM
same,EC50,"[1]; Mammarenavirus juninense, Vero",1.86 µM
same,CC50,[2],> 400 µM
same,CC50,[3],> 380 µM
same,concentration at 24 h,"[4]; ip, 10 mg/kg",0.75 ± 0.1 µM
same,concentration at 24 h,"[4]; po, 50 mg/kg",2.8 ± 1.1 µM
same,concentration at 24 h,"[4]; po, 150 mg/kg",3.4 ± 1.3 µM
same,concentration at 24 h,"[4]; po, 500 mg/kg",9.8 ± 4.2 µM
same,EC50,[5],< 0.38 µM
same,AUC-INF,"[6]; ip, 10 mg/kg",19.6 µM·h
same,Cmax,"[6]; ip, 10 mg/kg",7.7 ± 2.3 µM
same,t1/2,"[6]; ip, 10 mg/kg",6.3 h
same,AUC-INF,"[6]; po, 50 mg/kg",232.3 µM·h
same,Bioavailability,"[6]; po, 50 mg/kg",236%
same,Cmax,"[6]; po, 50 mg/kg",35.2 ± 9.7 µM
same,t1/2,"[6]; po, 50 mg/kg",8.3 h
same,AUC-INF,"[6]; po, 150 mg/kg",392.3 µM·h
same,Bioavailability,"[6]; po, 150 mg/kg",133%
same,Cmax,"[6]; po, 150 mg/kg",43.6 ± 2.8 µM
same,t1/2,"[6]; po, 150 mg/kg",8.5 h
same,AUC-INF,"[6]; po, 500 mg/kg",755.2 µM·h
same,Bioavailability,"[6]; po, 500 mg/kg",77.0%
same,Cmax,"[6]; po, 500 mg/kg",76 ± 15.3 µM
same,t1/2,"[6]; po, 500 mg/kg",12.9 h
same,CC50,[7],372 µM
same,CC50,[8],> 400 µM
same,EC50,[9],< 0.38 µM
same,EC90,[10],7.22 µM
same,EC50,[11],2.7 µM
same,EC90,[11],9.3 µM
same,CC50,[12],> 380 µM
